Experimental data taken from US20110028499A1, “PHARMACEUTICAL COMBINATION COMPRISING VITAMIN K” (SHIONOGI & CO., LTD., priority 2005, published 2011).
Several values for one entry are separate records, joined by “and”; a condition that tells them apart may be missing. Equal values may be shown once. Entries after “also recorded” stand apart in the source; their conditions may differ.

Experiments:
[1] = test system: male Sprague-Dawley rats; assay: Example 1: PT, APTT and Fbg in rat plasma after 7-day repeated gavage administration; format: in vivo; conditions: 300 mg/kg/day gavage, 7 days; for PT and APTT compared with Controls / APTT / Fbg / PT: rat
[2] = test system: male Sprague-Dawley rats; assay: Example 2: PT, APTT and Fbg in rat plasma after 1, 2 and 3 administrations; format: in vivo; conditions: 300 mg/kg/day oral, blood on next day, mean
[3] = test system: extrinsic and intrinsic blood coagulation factors; assay: Example 2: activities of extrinsic and intrinsic blood coagulation factors in rat plasma (factor deficient plasma method); format: in vivo; conditions: 300 mg/kg/day oral, mean, % of intact rat plasma
[4] = test system: male Sprague-Dawley rats; assay: Example 3: PT, APTT and Fbg in rats given Compound (a) and/or vitamin K1 for 3 days; format: in vivo; conditions: rat; for APTT / Fbg / PT: mean
Description: (§1) 4-week-old male Sprague-Dawley rats (Crj:CD(SD)IGS, SPF) were purchased from CHARLES RIVER LABORATORIES JAPAN, INC., Hino Breeding Center. […] Administeration was started at. […] Subcutaneous administeration was a 3-day administeration (3 or 200 μg/kg/day) into the back skin with injection syringe attached with a subcutaneous 1⁄4 needle at 1 mL/kg/day. Oral administeration was a 3-day repeated gavage administeration (200 μg/kg/day) with gastric tube for rats at. 4 mL/kg/day. Dosing volume was calculated based on body weight measured on that day. […] Activities of Vitamin K-dependent coagulation factors ([…]) were also) measured with the same blood plasma samples according to Example 2.

[5] = test system: Vitamin K-dependent coagulation factors (F-II, F-VII, F-X, F-IX); assay: Example 3: activities of vitamin K-dependent coagulation factors in rats given Compound (a) and/or vitamin K1; format: in vivo; conditions: rat, 3 days; for F-II activity / F-IX activity / F-VII activity / F-X activity: mean
Description: as §1

[6] = test system: male Sprague-Dawley rats; assay: Example 4: PT, APTT and Fbg in rats given Compound (a) with or without vitamin K1 for 7 days; format: in vivo; conditions: rat; for APTT / Fbg / PT: Compound (a) only 200 mg/kg oral
Description: 4-week-old male Sprague-Dawley rats (Crl:CD(SD), SPF) were purchased from CHARLES RIVER LABORATORIES JAPAN, INC., Hino Breeding Center. […] 0.005% (v/v) solution of vitamin K1 (TOYO Pharma Co., Ltd., 30 mg/3 mL) was prepared just before use with a vehicle of water for injection (Otsuka Pharmaceutical Factory, Inc.). […] Dosing volume was calculated based on body weight, measured on that day. […] The rats were dissected after collecting the blood and a visual inspection of skeletal muscle (soleus muscle) was carried out. After that, the muscle was fixed with 10% neutral buffered formalin, paraffin section was routinely processed, and a histological examination was carried out with an optical microscope after hematoxylin and eosin staining.

[7] = test system: skeletal muscle (soleus muscle); assay: Example 4: histological examination of skeletal muscle (soleus muscle); format: in vivo; design: key: (±): slight; (+): mild; conditions: rat, Compound (a) only 200 mg/kg oral, 7 days; individual animal
[8] = disclosed in WO01/00603; cited from earlier work
[9] = biological target: human PPARδ (hPPARδ) (Homo sapiens, UniProt Q03181); assay: cell-based
[10] = Compound (a) only 300 mg/kg oral
[11] = Compound (a) only 300 mg/kg/day
[12] = individual animal, 300 mg/kg/day
[13] = vitamin K1 only 200 μg/kg subcutaneous

Sequence of human PPARδ (hPPARδ) (Q03181 139-441 limits assumed): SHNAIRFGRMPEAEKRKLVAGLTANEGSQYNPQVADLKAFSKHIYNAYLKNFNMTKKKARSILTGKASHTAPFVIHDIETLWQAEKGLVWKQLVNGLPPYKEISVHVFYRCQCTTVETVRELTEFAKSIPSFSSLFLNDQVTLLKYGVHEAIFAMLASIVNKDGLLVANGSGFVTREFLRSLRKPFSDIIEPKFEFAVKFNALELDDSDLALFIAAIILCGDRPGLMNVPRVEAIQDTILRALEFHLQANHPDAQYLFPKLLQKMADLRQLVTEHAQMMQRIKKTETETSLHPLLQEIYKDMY

SMILES: Cc1cc(SCc2sc(-c3ccc(C(F)(F)F)cc3)nc2C)ccc1OCC(=O)O [Compound (a), GW501516]
- rats died ([1]; 4 animals in the group): 3
- PT and APTT compared with Controls [1]: prolonged
- APTT ([1]; blood on next day, group mean): 46.4 s
- Fbg ([1]; blood on next day, group mean): 173.3 mg/dL
- PT ([1]; blood on next day, group mean): 26.9 s
- APTT ([1]; individual animal): 46.4 s
- Fbg ([1]; individual animal): 173.3 mg/dL
- PT ([1]; individual animal): 26.9 s
- APTT ([2]; 1 dose): 19.9 s
- Fbg ([2]; 1 dose): 200.1 mg/dL
- PT ([2]; 1 dose): 14.6 s
- APTT ([2]; 2 doses): 25.5 s
- Fbg ([2]; 2 doses): 198.8 mg/dL
- PT ([2]; 2 doses): 18.3 s
- APTT ([2]; 3 doses): 30.7 s
- Fbg ([2]; 3 doses): 175.7 mg/dL
- PT ([2]; 3 doses): 21.7 s
- F-II activity ([3]; 1 dose): 60.8%
- F-IX activity ([3]; 1 dose): 62.5%
- F-V activity ([3]; 1 dose): 93.3%
- F-VII activity ([3]; 1 dose): 57.7%
- F-VIII activity ([3]; 1 dose): 99.2%
- F-X activity ([3]; 1 dose): 68.3%
- F-XI activity ([3]; 1 dose): 84.0%
- F-XII activity ([3]; 1 dose): 79.4%
- F-II activity ([3]; 2 doses): 24.2%
- F-IX activity ([3]; 2 doses): 34.2%
- F-V activity ([3]; 2 doses): 90.6%
- F-VII activity ([3]; 2 doses): 17.1%
- F-VIII activity ([3]; 2 doses): 94.2%
- F-X activity ([3]; 2 doses): 44.7%
- F-XI activity ([3]; 2 doses): 76.0%
- F-XII activity ([3]; 2 doses): 80.7%
- F-II activity ([3]; 3 doses): 15.1%
- F-IX activity ([3]; 3 doses): 24.6%
- F-V activity ([3]; 3 doses): 93.0%
- F-VII activity ([3]; 3 doses): 8.8%
- F-VIII activity ([3]; 3 doses): 101.2%
- F-X activity ([3]; 3 doses): 32.4%
- F-XI activity ([3]; 3 doses): 71.0%
- F-XII activity ([3]; 3 doses): 78.6%
- APTT [4, 10]: 30.2 s
- Fbg [4, 10]: 177.8 mg/dL
- PT [4, 10]: 23.0 s
- PT and APTT compared with the intact group [4, 11]: more prolonged
- F-II activity [5, 10]: 13.8%
- F-IX activity [5, 10]: 27.7%
- F-VII activity [5, 10]: 6.3%
- F-X activity [5, 10]: 29.9%
- activities of vitamin K-dependent coagulation factors compared with the intact group [5, 11]: lowered
- APTT ([6]; individual animal): 34.1 s and 67.1 s
- Fbg ([6]; individual animal): 199.7 mg/dL and 227.2 mg/dL
- PT ([6]; individual animal): 19.1 s and 35.5 s
- APTT ([6]; mean): 50.6 s
- Fbg ([6]; mean): 213.5 mg/dL
- PT ([6]; mean): 27.3 s
- prothrombin time and activated partial thromboplastin time ([6]; Compound (a) only 200 mg/kg/day): prolonged
- Histological examination Soleus muscle: Necrosis [7]: Necrosis (+); also recorded: Necrosis (±)
- elevation of HDL [8]: high elevation of HDL; also recorded: HDL-raising

SMILES: CCO/N=C/c1c(CSc2ccc(C(C)CC(=O)O)cc2OC)noc1-c1ccc(C(F)(F)F)cc1 (centres unmarked) [Compound (b)]
- PT and APTT compared with Controls [1]: prolonged
- APTT ([1]; blood on next day, group mean): 31.3 s
- Fbg ([1]; blood on next day, group mean): 204.5 mg/dL
- PT ([1]; blood on next day, group mean): 18.6 s
- APTT [1, 12]: 29.1 s and 28.2 s and 30.7 s and 37.3 s
- Fbg [1, 12]: 217.9 mg/dL (2×) and 208.9 mg/dL and 173.3 mg/dL
- PT [1, 12]: 17.4 s and 18.6 s and 16.4 s and 22.0 s
- EC50 [9]: 1.3 nM

SMILES: Cc1c(CSc2ccc([C@@H](C)CC(=O)O)cc2)noc1-c1ccc(C(F)(F)F)cc1 [Compound (c)]
- PT and APTT compared with Controls [1]: prolonged
- APTT ([1]; blood on next day, group mean): 43.9 s
- Fbg ([1]; blood on next day, group mean): 204.8 mg/dL
- PT ([1]; blood on next day, group mean): 24.5 s
- APTT [1, 12]: 21.9 s and 41.8 s and 68.2 s and 43.8 s
- Fbg [1, 12]: 201.8 mg/dL and 179.6 mg/dL and 193.8 mg/dL and 243.9 mg/dL
- PT [1, 12]: 13.6 s and 22.3 s and 35.9 s and 26.0 s
- EC50 [9]: 18.9 nM

SMILES: CC1=C(C/C=C(\C)CCC[C@H](C)CCC[C@H](C)CCCC(C)C)C(=O)c2ccccc2C1=O [Vitamin K1, phylloquinone]
- APTT [4, 13]: 15.9 s
- Fbg [4, 13]: 200.3 mg/dL
- PT [4, 13]: 15.3 s
- each item (PT, APTT, Fbg, factor activities) compared with the intact group ([4]; vitamin K1 only 200 μg/kg/day subcutaneous): no significant differences
- F-II activity [5, 13]: 92.7%
- F-IX activity [5, 13]: 100.2%
- F-VII activity [5, 13]: 70.1%
- F-X activity [5, 13]: 74.3%
